Publication PMC8841437 (Clinical and Translational Science, 2021)

Columns and labels:
healthy participants = experiment: Safety and tolerability; assay type: in vivo, human
Single ascending dose = assay type: in vivo, human; details: for increase in bioavailability by food intake: fed vs fasted; for AUC: AUC(0‐T); for AUC / Cmax: n = 6, geometric mean (geometric CV%); for Cmax: fed (high-fat breakfast)
[1] = MAD panel 10, 200 mg q.d. fasted, n = 6
[2] = MAD panel 11, 500 mg q.d. fed, n = 6
[3] = MAD panel 12, 35 mg b.i.d. fasted, n = 6
[4] = MAD panel 13, 200 mg b.i.d. fasted, n = 6
[5] = MAD, all participants treated with milvexian, N = 42
[6] = all SAD and MAD dosing regimens

C[C@@H]1CCC[C@H](n2cnc(-c3cc(Cl)ccc3-n3cc(Cl)nn3)cc2=O)c2cc(ccn2)-c2c(cnn2C(F)F)NC1=O [milvexian]
Diarrhea (TEAE) (healthy participants; [1]): 1 (16.7) n (%) | Dizziness (TEAE) (healthy participants; [1]): 0 n (%) | Headache (TEAE) (healthy participants; [1]): 1 (16.7) n (%) | Nausea (TEAE) (healthy participants; [1]): 2 (33.3) n (%) | Oropharyngeal pain (TEAE) (healthy participants; [1]): 1 (16.7) n (%) | Pain in extremity (TEAE) (healthy participants; [1]): 1 (16.7) n (%) | Abdominal discomfort (TEAE) (healthy participants; [2]): 0 n (%) | Abdominal pain (TEAE) (healthy participants; [2]): 0 n (%) | Any TEAE (healthy participants; [2]): 3 (50.0) n (%) | Diarrhea (TEAE) (healthy participants; [2]): 0 n (%) | Dizziness (TEAE) (healthy participants; [2]): 0 n (%) | Headache (TEAE) (healthy participants; [2]): 0 n (%) | Nausea (TEAE) (healthy participants; [2]): 0 n (%) | Oropharyngeal pain (TEAE) (healthy participants; [2]): 0 n (%) | Pain in extremity (TEAE) (healthy participants; [2]): 0 n (%) | Abdominal discomfort (TEAE) (healthy participants; [3]): 0 n (%) | Abdominal pain (TEAE) (healthy participants; [3]): 0 n (%) | Any TEAE (healthy participants; [3]): 2 (33.3) n (%) | Diarrhea (TEAE) (healthy participants; [3]): 0 n (%) | Dizziness (TEAE) (healthy participants; [3]): 1 (16.7) n (%) | Headache (TEAE) (healthy participants; [3]): 0 n (%) | Nausea (TEAE) (healthy participants; [3]): 0 n (%) | Oropharyngeal pain (TEAE) (healthy participants; [3]): 0 n (%) | Pain in extremity (TEAE) (healthy participants; [3]): 0 n (%) | Abdominal discomfort (TEAE) (healthy participants; [4]): 0 n (%) | Abdominal pain (TEAE) (healthy participants; [4]): 0 n (%) | Any TEAE (healthy participants; [4]): 2 (33.3) n (%) | Diarrhea (TEAE) (healthy participants; [4]): 0 n (%) | Dizziness (TEAE) (healthy participants; [4]): 1 (16.7) n (%) | Headache (TEAE) (healthy participants; [4]): 0 n (%) | Nausea (TEAE) (healthy participants; [4]): 0 n (%) | Oropharyngeal pain (TEAE) (healthy participants; [4]): 1 (16.7) n (%) | Pain in extremity (TEAE) (healthy participants; [4]): 0 n (%) | Diarrhea (TEAE) (healthy participants; MAD panels, milvexian): 11.9% | Headache (TEAE) (healthy participants; MAD panels, milvexian): 14.3% | participants reporting TEAEs (healthy participants; MAD panels, participants who received milvexian (21 participants)): 50.0% | Abdominal discomfort (TEAE) (healthy participants; [5]): 2 (4.8) n (%) | Abdominal pain (TEAE) (healthy participants; [5]): 2 (4.8) n (%) | Any TEAE (healthy participants; [5]): 21 (50.0) n (%) | Diarrhea (TEAE) (healthy participants; [5]): 5 (11.9) n (%) | Dizziness (TEAE) (healthy participants; [5]): 3 (7.1) n (%) | Headache (TEAE) (healthy participants; [5]): 6 (14.3) n (%) | Nausea (TEAE) (healthy participants; [5]): 3 (7.1) n (%) | Oropharyngeal pain (TEAE) (healthy participants; [5]): 2 (4.8) n (%) | Pain in extremity (TEAE) (healthy participants; [5]): 2 (4.8) n (%) | ECG abnormalities (healthy participants; SAD and MAD): no clinically significant ECG abnormalities | incidence of laboratory and vital sign abnormalities vs placebo (healthy participants; SAD and MAD): no relevant differences | participants reporting TEAEs (healthy participants; SAD panels, fasted participants who received milvexian (three participants)): 8.3% | deaths or other SAEs (healthy participants; SAD up to 500 mg, MAD up to 200 mg b.i.d. or 500 mg q.d.): No deaths or other SAEs occurred | Headache (TEAE) (healthy participants; SAD, 300 mg, fasted): 2 n | nausea (TEAE) after a high-fat breakfast (healthy participants; SAD, 500-mg group, fed (one participant)): 16.7% | clinically significant bleeding events (healthy participants; [6]): no clinically significant bleeding events | severity of TEAEs (healthy participants; [6]): mild | platelet count at next sampling time 2 days later (healthy participants; same participant, 35-mg b.i.d. group, within normal limits): 1.84e+11 L⁻¹ | increase in bioavailability by food intake (Single ascending dose; SAD 200-mg panel): ~ 1.4 fold | increase in bioavailability by food intake (Single ascending dose; SAD 500-mg panel): ~ 2 fold | mean T1/2 shortened when administered with food (Single ascending dose; SAD panels 4 and 6, fed vs fasted): 1.5 h | dose proportionality of Cmax and exposure (Single ascending dose; SAD, fasted, 20 to 200 mg): generally dose‐proportional | AUC (Single ascending dose; human, plasma, oral, 4 mg, SAD panel 1, 4 mg, fasted): 125 ng·h/mL | AUC (Single ascending dose; human, plasma, oral, 20 mg, SAD panel 2, 20 mg, fasted): 1220 ng·h/mL | AUC (Single ascending dose; human, plasma, oral, 60 mg, SAD panel 3, 60 mg, fasted): 3790 ng·h/mL | AUC (Single ascending dose; human, plasma, oral, 200 mg, SAD panel 4, 200 mg, fasted): 12500 ng·h/mL | AUC (Single ascending dose; human, plasma, oral, 200 mg, SAD panel 4, 200 mg, fed): 17800 ng·h/mL | Cmax (Single ascending dose; human, plasma, oral, 200 mg, SAD panel 4, 200 mg): 1640 ng/mL | AUC (Single ascending dose; human, plasma, oral, 300 mg, SAD panel 5, 300 mg, fasted): 14600 ng·h/mL | AUC (Single ascending dose; human, plasma, oral, 500 mg, SAD panel 6, 500 mg, fasted): 21000 ng·h/mL | AUC (Single ascending dose; human, plasma, oral, 500 mg, SAD panel 6, 500 mg, fed): 44300 ng·h/mL | Cmax (Single ascending dose; human, plasma, oral, 500 mg, SAD panel 6, 500 mg): 3360 ng/mL | half-life (Single ascending dose; human, plasma, oral, T1/2, range across all SAD panels, SAD, 4-500 mg): 8.3 to 13.8 h | Tmax (Single ascending dose; human, plasma, oral, Tmax, summary in discussion, rapid absorption): 2 to 4 h
